Measured values from patent US20110087153A1, “Transdermal Methods And Systems For The Delivery Of Rizatriptan” (priority 2009, published 2011).

Columns and labels:
[1] = Permeation of compound through human cadaver skin (iontophoresis, drug solutions); assay type: in vitro ADME; details: 2 mAmp/cm^2, 2% zolmitriptan, 4% rizatriptan, 4% sumatriptan solutions (FIG. 5)
Experimental: Human cadaver skin was obtained from Allosource. The skin was maintained at −70° C. prior to use. A portion of skin was thawed in 0.9% NaCl solution for 30 minutes. The skin was towel dried and cut into 2 cm square sections. The skin was mounted with the epidermis side toward the donor chamber in the Permeagear 0.9 cm diameter side-by-side diffusion cells.
A solution of 2% zolmitriptan was made by dissolving zolmitriptan in 0.1 N HCl. A 4% sumatriptan solution was made by dissolving sumatriptan in 0.1% NaCl. The 4% rizatriptan solution was made by dissolving the rizatriptan in 0.1% NaCl
Three cells were dosed with 2% zolmitriptan, three cells were dosed with 4% rizatriptan, and two cells were dosed with 4% sumatriptan. Normal saline solution was used as the receiver solution. The cells were clamped at 1.27 mAmp (2 mAmp/cm^2). 2 ml of each receiver compartment was sampled every 30 minutes and replaced with normal saline solution. One cell of the rizatriptan iontophoresis and one cell of sumatriptan iontophoresis were lost during the study due to holes in the skin.
Each 2 ml sample was diluted 1 to 100 with water. Zolmitriptan and sumatriptan were assayed by UV at 222 nm and 282 nm respectively. Rizatriptan was assay by HPLC as previously described.

[2] = Permeation of formulated product through human cadaver skin (iontophoresis, gel formulations); assay type: in vitro ADME; details: for Lag time: human cadaver skin, gel with 3.4% lauric acid, 2 mAmp/cm^2
Experimental: Brij 30 (Laureth-4) and adipic acid were obtained from Fisher Scientific. Eudragit E*PO was obtained from Evonik. Human cadaver skin was thawed in 0.9% NaCl for 30 minutes and patted dry. The skin was cut into 2 cm square sections. The epidermis was placed towards the donor compartment of a […] PermeGear side-by-side diffusion cell. The donor gel was placed in the donor compartment and 3 ml of normal saline solution was placed in the receiver compartment. Three cells were dosed with zolmitriptan with 3.4% lauric acid, three cells were dosed with rizatriptan with 3.4% lauric acid and two cells were dosed with rizatriptan with 3.4% Brij 30. The cells were clamped at 1.27 mAmp (2 mAmp/cm^2). Two ml of each receiver compartment was sampled every 30 minutes and replaced with normal saline solution. Each 2 ml sample was diluted 1 to 100 with water. Zolmitriptan and sumatriptan were assayed by UV at 222 nm Rizatriptan was assayed by HPLC as previously described. Additional analysis of the permeation data was conducted to find the amount of time to dose 5 mg of drug based on reasonable patch areas, and is shown in Table 4. […] However, as was observed by the previous permeation data, zolmitriptan would need a total of 43 minutes when the lag-time is considered compared to 19 minutes for rizatriptan when the lag time is considered.

[3] = Iontophoresis properties (charge and molecular weight analysis); assay type: physicochemical
Excerpt: This is because the diffusion and permeation through a hydrophilic membrane are dependent on molecular weight, radius of the molecule and the ionic drag the molecule has with the membrane.

[4] = Permeation through dialysis membrane (iontophoresis side-by-side diffusion cells); assay type: in vitro ADME
Experimental: Ionotophoresis side-by side diffusion cells with 9 mm diameter opening were obtained from PermeGear. The current clamps with PC control were provided by NuPathe, Inc. The temperature controller was from Henke. 2.0 mm diameter Zinc and Silver were obtained from Alpha Aesar. Sumatriptan, Zolmitriptan and Rizatriptan wore provided by NuPathe. Sodium chloride was obtained from Fisher Scientific,
A donor solution of 4% sumatriptan succinate in 0.9% NaCl was prepared. The receiver solution was 0.9% Sodium chloride in water. A Millipore 1000 mw cutoff membrane were used as the membrane. The glossy side of the membrane faced the donor compartment. The volume of the donor and receiver solution was 3.0 ml. 0.5 mm zinc wire was placed in the donor compartment and 2.0 mm silver wire was placed in the receiver compartment. The temperature of the apparatus was maintained at 33° C.
Ketoprofen was obtained from Spectrum Chemical. A 2% ketoprofen donor solution was made by dissolving in 0.1 N NaOH.
Three cells were clamped at 2 mAmps/cm^2 (1.27 mAmp/cell), 3 cells were clamped at 2 mAmp/cm^2 with the electrodes reversed, 3 cells (the control cells) were not clamped.
At each sampling point 2 ml was withdrawn from the receiver compartment and was replaced with 0.9% Sodium Chloride. Each sample was diluted using 0.9% NaCl to be within the standard curve. Absorbance was measured using a UV spectrophotometer with a 1 cm quartz cuvette at 282 nm. […]

[5] = Oxidation stability for rizatriptan under 2 mA current; assay type: physicochemical; details: for Rizatriptan concentration after exposure to 2 mAmp current: 0.9% NaCl
Experimental: A drug stock solution was made by dissolving 2.8 mg of rizatriptan benzoate in 0.9% NaCl to a volume of 50 mL. The working standard was prepared by diluting 0.5 ml of the stock solution to 10 ml with 0.9% NaCl. This produced a final concentration of 2.8 mcg/ml, for the working standard.
A solution was made by dissolving 0.5000 g of rizatriptan benzoate in 0.9% NaCl to a final volume of 50 mL. A 1 ml sample of this solution was kept for future assay. The remaining solution was placed in a beaker covered with parafilm Zinc wire (Cathode) and silver wire (anode) were passed through the parafilm and placed in the drug solution. Current of 2 mA was passed through the solution. Samples of 1 mL each were withdrawn every 30 minutes for 5.5 hours.
A 0.1 mL volume from each sample was diluted with 15 mL of 0.9% NaCl. A 1 ml volume of this dilution was then further diluted to 10 ml using 0.9% NaCl. Similarly, a 0.1 ml volume of the initial solution was diluted with 15 mL of 0.9% NaCl. A 1 ml volume of this dilution was then diluted to 10 ml with 0.9% NaCl.

[6] = cited from earlier work
[7] = 1000 mwco dialysis membrane, 33° C., UV assay
[8] = 1000 mwco dialysis membrane, 33° C., UV assay, listed as ketoprofen

For `CN(C)CCc1c[nH]c2ccc(C[C@H]3COC(=O)N3)cc12` [Zolmitriptan], the “Skin permeation by iontophoresis” value [1] was “very comparable to the permeation of sumatriptan via iontophoresis”, the Lag time [2] was 20 min and the “Total time to deliver 5 mg when the lag time is considered” value [2] was 43 min. The “Ionizable Nitrogens” value [3] was 3, the “MW/charge Ratio” value [3] was 92.8 and the “Flux, Passive diffusion (No current)” value ([4]; not told) was 3.32 mcg/cm^2/min. The “Flux, Reversed Electrodes (Current reversed at 2 mAmp/cm^2)” value (shortened to “Flux, Reversed Electrodes”) ([4]; not told) was 0.05 mcg/cm^2/min and the “Ratio of Iontophoresis to Passive Diffusion” value ([4]; not told) was 11.5.
In the case of `CN(C)CCc1c[nH]c2ccc(Cn3cncn3)cc12` [Rizatriptan], the “Skin permeation by iontophoresis” value [1] is reported as “greater skin permeation than sumatriptan and zolmitriptan”, the Lag time [2] is reported as 9 min and the “Total time to deliver 5 mg when the lag time is considered” value [2] is reported as 19 min. The “Time in which a dose (5 mg) can be delivered” value ([2]; suggested by the results of the formulation studies) was “about 45 minutes”, the “Rizatriptan concentration after exposure to 2 mAmp current” value (“Rizatriptan concentration after exposure” below) ([5]; 0 min) was 10.000 mg/mL and the “Exposure time after which degradation becomes significant” value ([5]; 2 mA current) was over 4 h. For the same molecule, the Rate of degradation ([5]; 2 mA current, regression with all data) was about 16 µg/mL/min, the “Rizatriptan concentration after exposure” value ([5]; 30 min) was 10.041 mg/mL and the “Rizatriptan concentration after exposure” value ([5]; 60 min) was 9.829 mg/mL. For the same molecule, the “Rizatriptan concentration after exposure” value ([5]; 90 min) was 9.909 mg/mL, the “Rizatriptan concentration after exposure” value ([5]; 120 min) was 9.782 mg/mL and the “Rizatriptan concentration after exposure” value ([5]; 150 min) was 9.942 mg/mL. For the same molecule, the “Rizatriptan concentration after exposure” value ([5]; 180 min) was 9.875 mg/mL, the “Rizatriptan concentration after exposure” value ([5]; 210 min) was 9.801 mg/mL and the “Rizatriptan concentration after exposure” value ([5]; 240 min) was 9.758 mg/mL. For the same molecule, the “Rizatriptan concentration after exposure” value ([5]; 270 min) was 9.963 mg/mL, the “Rizatriptan concentration after exposure” value ([5]; 300 min) was 9.216 mg/mL and the “Rizatriptan concentration after exposure” value ([5]; 330 min) was 9.389 mg/mL. For the same molecule, the Degradation ([5]; during the 5.5 hour exposure to 2 mA current) was “approximately 7%”, the “Ionizable Nitrogens” value [3] was 3 and the “MW/charge Ratio” value [3] was 89.8.
For `CCCCCCCCCCCC(=O)O` [Lauric acid], the pKa [6] is listed as “around 4.9”.
For `CC(C(=O)O)c1cccc(C(=O)c2ccccc2)c1` (centres unmarked) [Ketoprofen], the “Flux, Iontophoresis (2 mAmp/cm^2)” value [4, 7] was 8.24 mcg/cm^2/min, the “Flux, Passive diffusion (No current)” value [4, 7] was 7.41 mcg/cm^2/min and the “Flux, Reversed Electrodes” value [4, 7] was 11.66 mcg/cm^2/min. The “Flux, Iontophoresis (2 mAmp/cm^2)” value [4, 8] was “less than the passive diffusion”, the “Flux, Passive diffusion (No current)” value [4, 8] was “substantial” and the “Flux, Reversed Electrodes” value [4, 8] was “greatest flux”. For the same molecule, the “Ratio of Iontophoresis to Passive Diffusion” value ([4]; 1000 mwco dialysis membrane, UV assay) was 1.6.
In the case of `CNS(=O)(=O)Cc1ccc2[nH]cc(CCN(C)C)c2c1` [Sumatriptan], the “Ionizable Nitrogens” value [3] is reported as 2, the “MW/charge Ratio” value [3] is reported as 147.7 and the “Flux, Passive diffusion (No current)” value ([4]; not told) is reported as 0.58 mcg/cm^2/min. The “Flux, Reversed Electrodes” value ([4]; not told) was 0.11 mcg/cm^2/min.
